# Measurements as given in paper PMC8222254, “Self-assembly of an anion receptor with metal-dependent kinase inhibition and potent in vitro anti-cancer properties” (Nature Communications, 2021).
# Several values for one entry are separate records, joined by “and”; a condition that tells them apart may be missing. Equal values may be shown once.
# Tests used:
# Test in all cases: Kinase inhibition screen, cell-free 33P ATP assay at 10 μM
# Type in all cases: biochemical
# [1] = target: 140 purified human kinases (Homo sapiens, UniProt Q02763)
# Method in brief: (§1)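 Each complex tested in duplicate at 10 μM; cell-free radiometric assay using ^33P ATP on purified enzymes. Hits mapped by HGNC symbol onto the kinome tree.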
# [2] = target: 140 purified human kinases (Homo sapiens, UniProt O96013)
# Method in brief: as §1
# [3] = target: 140 purified human kinases (Homo sapiens, UniProt P05129); settings: PKCγ
# Method in brief: as §1
# [4] = target: 140 purified human kinases (Homo sapiens, UniProt P08069); settings: IGF-1R
# Method in brief: as §1
# [5] = target: 140 purified human kinases (Homo sapiens, UniProt Q9H4A3)
# Method in brief: as §1
# [6] = target: 140 purified human kinases (Homo sapiens, UniProt Q06187); settings: BTK
# Method in brief: as §1
# [7] = target: 140 purified human kinases (Homo sapiens, UniProt P54764)
# Method in brief: as §1
# [8] = target: 140 purified human kinases (Homo sapiens, UniProt P07947)
# Method in brief: as §1
# [9] = target: 140 purified human kinases (Homo sapiens, UniProt P17948); settings: VEG-FR
# Method in brief: as §1
# [10] = target: 140 purified human kinases (Homo sapiens, UniProt P16234); settings: PDGFRA
# Method in brief: as §1
# [11] = target: 140 purified human kinases (Homo sapiens, UniProt Q9HBH9)
# Method in brief: as §1
# [12] = target: 140 purified human kinases (Homo sapiens, UniProt P49137)
# Method in brief: as §1
# Chain of 140 purified human kinases (Homo sapiens, UniProt O96013) (O96013 whole entry): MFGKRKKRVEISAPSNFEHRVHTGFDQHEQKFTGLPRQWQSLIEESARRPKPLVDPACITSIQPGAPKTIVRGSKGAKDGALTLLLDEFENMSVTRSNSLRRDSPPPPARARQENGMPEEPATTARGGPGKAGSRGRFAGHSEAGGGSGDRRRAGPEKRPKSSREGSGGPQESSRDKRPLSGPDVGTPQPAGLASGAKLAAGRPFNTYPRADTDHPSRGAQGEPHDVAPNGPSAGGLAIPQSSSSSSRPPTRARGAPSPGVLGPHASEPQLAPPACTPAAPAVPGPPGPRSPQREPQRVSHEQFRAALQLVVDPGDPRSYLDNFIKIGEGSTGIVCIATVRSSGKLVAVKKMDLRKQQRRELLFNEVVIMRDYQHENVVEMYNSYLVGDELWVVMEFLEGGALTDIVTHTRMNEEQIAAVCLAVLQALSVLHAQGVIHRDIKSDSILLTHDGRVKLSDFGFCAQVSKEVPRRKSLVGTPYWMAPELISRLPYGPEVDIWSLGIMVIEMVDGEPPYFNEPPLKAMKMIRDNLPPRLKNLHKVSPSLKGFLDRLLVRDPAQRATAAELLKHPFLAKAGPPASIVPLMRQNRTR
# Chain of 140 purified human kinases (Homo sapiens, UniProt P54764) (P54764 20-986): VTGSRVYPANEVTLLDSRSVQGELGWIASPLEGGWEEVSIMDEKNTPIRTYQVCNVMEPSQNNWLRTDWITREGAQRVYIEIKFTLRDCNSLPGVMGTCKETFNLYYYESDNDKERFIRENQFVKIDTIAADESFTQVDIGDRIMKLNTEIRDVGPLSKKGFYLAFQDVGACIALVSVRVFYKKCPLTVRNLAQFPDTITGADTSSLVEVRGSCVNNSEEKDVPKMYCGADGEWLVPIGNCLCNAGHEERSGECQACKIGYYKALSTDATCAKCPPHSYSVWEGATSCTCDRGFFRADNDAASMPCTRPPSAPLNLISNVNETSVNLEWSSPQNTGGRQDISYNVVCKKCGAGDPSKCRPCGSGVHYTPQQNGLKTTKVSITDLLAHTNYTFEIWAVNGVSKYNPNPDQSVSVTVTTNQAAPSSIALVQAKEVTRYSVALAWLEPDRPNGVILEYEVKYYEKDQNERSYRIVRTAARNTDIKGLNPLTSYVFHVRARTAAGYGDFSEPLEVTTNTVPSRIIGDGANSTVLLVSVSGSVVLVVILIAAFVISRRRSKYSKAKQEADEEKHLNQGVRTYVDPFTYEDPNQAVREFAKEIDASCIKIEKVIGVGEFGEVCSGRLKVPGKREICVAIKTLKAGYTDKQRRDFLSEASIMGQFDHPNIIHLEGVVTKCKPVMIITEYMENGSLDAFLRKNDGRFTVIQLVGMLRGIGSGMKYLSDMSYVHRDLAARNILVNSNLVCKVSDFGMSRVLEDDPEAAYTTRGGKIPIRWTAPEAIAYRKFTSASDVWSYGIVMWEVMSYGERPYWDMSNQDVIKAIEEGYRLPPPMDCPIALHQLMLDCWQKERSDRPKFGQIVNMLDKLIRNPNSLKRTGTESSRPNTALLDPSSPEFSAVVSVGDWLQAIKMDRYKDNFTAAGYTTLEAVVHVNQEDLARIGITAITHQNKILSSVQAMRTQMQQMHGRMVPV
# Chain of 140 purified human kinases (Homo sapiens, UniProt Q06187) (Q06187 whole entry): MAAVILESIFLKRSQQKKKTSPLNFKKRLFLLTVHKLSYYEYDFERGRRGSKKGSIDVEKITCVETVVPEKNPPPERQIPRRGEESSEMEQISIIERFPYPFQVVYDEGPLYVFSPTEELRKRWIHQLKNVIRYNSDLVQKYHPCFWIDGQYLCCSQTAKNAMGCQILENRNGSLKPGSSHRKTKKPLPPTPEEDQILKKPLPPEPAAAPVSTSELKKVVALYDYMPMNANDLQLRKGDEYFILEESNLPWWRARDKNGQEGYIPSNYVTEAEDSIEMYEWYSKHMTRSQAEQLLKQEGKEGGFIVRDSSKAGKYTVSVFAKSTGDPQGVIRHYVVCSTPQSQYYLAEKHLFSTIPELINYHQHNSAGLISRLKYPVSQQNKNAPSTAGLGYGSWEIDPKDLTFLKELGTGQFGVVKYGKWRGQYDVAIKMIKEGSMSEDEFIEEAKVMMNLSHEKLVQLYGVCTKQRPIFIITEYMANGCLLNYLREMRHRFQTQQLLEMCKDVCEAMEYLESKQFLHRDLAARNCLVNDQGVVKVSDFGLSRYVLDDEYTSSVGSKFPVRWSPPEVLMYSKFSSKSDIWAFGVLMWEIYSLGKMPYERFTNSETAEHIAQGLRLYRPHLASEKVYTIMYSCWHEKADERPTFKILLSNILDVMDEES
# Chain of 140 purified human kinases (Homo sapiens, UniProt Q9H4A3) (Q9H4A3 whole entry): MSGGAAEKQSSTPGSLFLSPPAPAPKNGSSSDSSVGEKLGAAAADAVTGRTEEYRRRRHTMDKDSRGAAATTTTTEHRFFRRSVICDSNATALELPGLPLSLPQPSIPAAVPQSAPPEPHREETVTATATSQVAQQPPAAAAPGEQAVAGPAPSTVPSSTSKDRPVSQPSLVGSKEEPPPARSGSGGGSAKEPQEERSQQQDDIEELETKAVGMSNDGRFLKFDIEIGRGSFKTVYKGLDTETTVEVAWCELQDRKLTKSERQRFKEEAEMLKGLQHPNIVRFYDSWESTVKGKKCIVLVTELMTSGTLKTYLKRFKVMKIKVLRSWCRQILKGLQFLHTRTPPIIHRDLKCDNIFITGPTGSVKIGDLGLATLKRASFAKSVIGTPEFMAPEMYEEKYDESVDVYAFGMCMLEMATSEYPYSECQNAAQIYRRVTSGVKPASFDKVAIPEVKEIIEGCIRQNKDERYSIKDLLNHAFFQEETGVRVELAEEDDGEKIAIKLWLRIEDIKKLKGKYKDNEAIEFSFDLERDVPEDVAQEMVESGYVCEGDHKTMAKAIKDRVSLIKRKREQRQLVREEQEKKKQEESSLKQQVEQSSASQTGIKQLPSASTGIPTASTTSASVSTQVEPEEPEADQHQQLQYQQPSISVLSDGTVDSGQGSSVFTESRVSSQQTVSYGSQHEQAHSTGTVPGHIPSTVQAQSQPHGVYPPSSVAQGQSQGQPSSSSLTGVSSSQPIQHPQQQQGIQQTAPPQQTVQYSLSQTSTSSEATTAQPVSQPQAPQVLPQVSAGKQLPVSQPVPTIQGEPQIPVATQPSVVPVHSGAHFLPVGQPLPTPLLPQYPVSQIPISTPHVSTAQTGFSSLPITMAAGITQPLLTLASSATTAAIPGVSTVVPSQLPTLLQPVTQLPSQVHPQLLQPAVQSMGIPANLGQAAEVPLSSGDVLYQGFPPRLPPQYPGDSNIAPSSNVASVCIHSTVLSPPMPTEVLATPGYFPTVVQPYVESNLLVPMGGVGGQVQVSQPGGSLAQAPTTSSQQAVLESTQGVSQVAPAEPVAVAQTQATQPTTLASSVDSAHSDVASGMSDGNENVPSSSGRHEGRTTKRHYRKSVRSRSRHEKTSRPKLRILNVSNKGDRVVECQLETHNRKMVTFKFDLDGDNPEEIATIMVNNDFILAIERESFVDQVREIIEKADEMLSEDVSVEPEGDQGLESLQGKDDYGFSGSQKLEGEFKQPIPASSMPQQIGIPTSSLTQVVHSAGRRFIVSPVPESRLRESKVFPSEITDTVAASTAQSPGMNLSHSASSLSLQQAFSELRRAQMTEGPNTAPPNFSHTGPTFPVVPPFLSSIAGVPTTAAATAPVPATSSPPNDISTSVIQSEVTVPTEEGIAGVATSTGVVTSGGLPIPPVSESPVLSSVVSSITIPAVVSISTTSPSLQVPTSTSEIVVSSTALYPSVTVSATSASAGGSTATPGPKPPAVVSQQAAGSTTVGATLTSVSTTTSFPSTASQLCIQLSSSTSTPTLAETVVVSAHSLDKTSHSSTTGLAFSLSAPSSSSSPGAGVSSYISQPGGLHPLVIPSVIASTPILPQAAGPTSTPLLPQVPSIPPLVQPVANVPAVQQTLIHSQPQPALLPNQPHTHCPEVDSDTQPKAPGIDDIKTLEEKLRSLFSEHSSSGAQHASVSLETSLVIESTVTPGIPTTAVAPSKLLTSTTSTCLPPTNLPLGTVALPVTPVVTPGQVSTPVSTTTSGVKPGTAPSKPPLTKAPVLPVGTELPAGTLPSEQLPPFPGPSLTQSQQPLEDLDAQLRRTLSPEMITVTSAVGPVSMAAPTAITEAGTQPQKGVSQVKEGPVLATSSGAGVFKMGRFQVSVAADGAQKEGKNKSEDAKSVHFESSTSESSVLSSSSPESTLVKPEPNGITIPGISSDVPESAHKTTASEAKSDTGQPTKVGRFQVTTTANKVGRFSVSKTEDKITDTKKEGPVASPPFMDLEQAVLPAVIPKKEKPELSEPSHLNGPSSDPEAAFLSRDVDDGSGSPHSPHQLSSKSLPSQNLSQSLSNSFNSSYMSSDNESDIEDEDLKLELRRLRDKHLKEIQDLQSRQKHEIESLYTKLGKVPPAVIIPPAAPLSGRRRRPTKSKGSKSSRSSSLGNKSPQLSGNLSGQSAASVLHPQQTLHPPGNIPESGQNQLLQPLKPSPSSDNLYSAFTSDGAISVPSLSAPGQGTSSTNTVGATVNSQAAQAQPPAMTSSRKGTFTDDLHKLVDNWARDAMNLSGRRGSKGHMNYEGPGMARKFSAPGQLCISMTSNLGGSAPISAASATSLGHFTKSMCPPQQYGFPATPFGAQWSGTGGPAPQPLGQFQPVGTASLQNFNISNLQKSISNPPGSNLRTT
# Chain of 140 purified human kinases (Homo sapiens, UniProt Q9HBH9) (Q9HBH9 whole entry): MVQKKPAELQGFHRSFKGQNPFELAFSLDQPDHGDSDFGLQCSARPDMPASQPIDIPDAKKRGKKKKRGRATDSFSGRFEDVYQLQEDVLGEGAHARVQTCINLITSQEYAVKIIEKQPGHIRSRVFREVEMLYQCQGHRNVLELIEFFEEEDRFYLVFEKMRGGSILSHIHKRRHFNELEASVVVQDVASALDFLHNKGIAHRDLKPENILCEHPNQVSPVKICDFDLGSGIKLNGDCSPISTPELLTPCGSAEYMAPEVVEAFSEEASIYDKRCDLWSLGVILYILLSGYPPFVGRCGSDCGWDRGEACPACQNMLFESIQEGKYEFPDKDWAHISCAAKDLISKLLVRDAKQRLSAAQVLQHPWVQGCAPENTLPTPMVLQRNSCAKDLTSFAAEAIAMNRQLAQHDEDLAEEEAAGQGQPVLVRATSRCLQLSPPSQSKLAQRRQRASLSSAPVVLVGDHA
smiles,measurement,setting,value
[Cu+2].[Cu+2].[Cu+2].c1ccc(-c2csc(NCCN(CCNc3nc(-c4ccccn4)cs3)CCNc3nc(-c4ccccn4)cs3)n2)nc1.c1ccc(-c2csc(NCCN(CCNc3nc(-c4ccccn4)cs3)CCNc3nc(-c4ccccn4)cs3)n2)nc1 [[L2Cu3]6+],% Inhibition Run 1,[1]; TIE2,73.2%
same,% Inhibition Run 2,[1]; TIE2,55%
same,"% Inhibition, Mean",[1]; TIE2,64%
same,mean % activity,[1]; TIE2,36%
same,% activity,"[1]; TIE2, Run 1",26.8%
same,% activity,"[1]; TIE2, Run 2",45%
same,% Inhibition Run 1,[2]; PAK4,23.3%
same,% Inhibition Run 2,[2]; PAK4,36.6%
same,"% Inhibition, Mean",[2]; PAK4,30%
same,mean % activity,[2]; PAK4,70%
same,% activity,"[2]; PAK4, Run 1",76.7%
same,% activity,"[2]; PAK4, Run 2",63.4%
same,% Inhibition Run 1,[3],58.1%
same,% Inhibition Run 2,[3],72%
same,"% Inhibition, Mean",[3],65%
same,mean % activity,[3],35%
same,% activity,[3]; Run 1,41.9%
same,% activity,[3]; Run 2,28%
same,% Inhibition Run 1,[4],0%
same,% Inhibition Run 2,[4],16.4%
same,"% Inhibition, Mean",[4],8%
same,mean % activity,[4],92%
same,% activity,[4]; Run 1,100%
same,% activity,[4]; Run 2,83.6%
same,% Inhibition Run 1,[5]; WNK1,12.1%
same,% Inhibition Run 2,[5]; WNK1,-2.6%
same,"% Inhibition, Mean",[5]; WNK1,4.75%
same,mean % activity,[5]; WNK1,95%
same,% activity,"[5]; WNK1, Run 1",87.9%
same,% activity,"[5]; WNK1, Run 2",102.6%
same,% Inhibition Run 1,[6],88.8%
same,% Inhibition Run 2,[6],82.3%
same,"% Inhibition, Mean",[6],86%
same,mean % activity,[6],14%
same,% activity,[6]; Run 1,11.2%
same,% activity,[6]; Run 2,17.7%
same,% Inhibition Run 1,[7]; EPH-A4,4.5%
same,% Inhibition Run 2,[7]; EPH-A4,-3.1%
same,"% Inhibition, Mean",[7]; EPH-A4,0.7%
same,mean % activity,[7]; EPH-A4,99%
same,% activity,"[7]; EPH-A4, Run 1",95.5%
same,% activity,"[7]; EPH-A4, Run 2",103.1%
same,% Inhibition Run 1,[8]; YES1,12.4%
same,% Inhibition Run 2,[8]; YES1,-9%
same,"% Inhibition, Mean",[8]; YES1,1.7%
same,mean % activity,[8]; YES1,98%
same,% activity,"[8]; YES1, Run 1",87.6%
same,% activity,"[8]; YES1, Run 2",109%
same,% Inhibition Run 1,[9],28.1%
same,% Inhibition Run 2,[9],27.2%
same,"% Inhibition, Mean",[9],28%
same,mean % activity,[9],72%
same,% activity,[9]; Run 1,71.9%
same,% activity,[9]; Run 2,72.8%
same,"% Activation, Mean value",[10],4.7%
same,% Inhibition Run 1,[10],10.8%
same,% Inhibition Run 2,[10],-20.2%
same,"% Inhibition, Mean",[10],-4.7%
same,mean % activity,[10],105%
same,% activity,[10]; Run 1,89.2%
same,% activity,[10]; Run 2,120.2%
same,% Inhibition Run 1,[11]; MNK2,59.3%
same,% Inhibition Run 2,[11]; MNK2,57.8%
same,"% Inhibition, Mean",[11]; MNK2,59%
same,mean % activity,[11]; MNK2,41%
same,% activity,"[11]; MNK2, Run 1",40.7%
same,% activity,"[11]; MNK2, Run 2",42.2%
same,% Inhibition Run 1,[12]; MAPKAP-K2,97.8%
same,% Inhibition Run 2,[12]; MAPKAP-K2,98.1%
same,"% Inhibition, Mean",[12]; MAPKAP-K2,98%
same,mean % activity,[12]; MAPKAP-K2,2%
same,% activity,"[12]; MAPKAP-K2, Run 1",2.2%
same,% activity,"[12]; MAPKAP-K2, Run 2",1.9%
same,% Activity inhibition Mean,"[12]; MAPKAP-K2, 10 µM",97.9%
same,% Activity inhibition Run 1,"[12]; MAPKAP-K2, 10 µM",97.8%
same,% Activity inhibition Run 2,"[12]; MAPKAP-K2, 10 µM",98.1%
same,% Activity remaining Run 1,"[12]; MAPKAP-K2, 10 µM",2.20%
same,% Activity remaining Run 2,"[12]; MAPKAP-K2, 10 µM",1.90%
CC(=O)[O-].CC(=O)[O-].CC(=O)[O-].CC(=O)[O-].CC(=O)[O-].CC(=O)[O-].[Zn+2].[Zn+2].[Zn+2].c1ccc(-c2csc(NCCN(CCNc3nc(-c4ccccn4)cs3)CCNc3nc(-c4ccccn4)cs3)n2)nc1.c1ccc(-c2csc(NCCN(CCNc3nc(-c4ccccn4)cs3)CCNc3nc(-c4ccccn4)cs3)n2)nc1 [[L2Zn3]6+],"% Inhibition, Mean",[1]; TIE2,85%
same,"% Inhibition, Run 1 / Run 2",[1]; TIE2,92% and 78%
same,mean % activity,[1]; TIE2,15%
same,% Activity inhibition Mean,"[1]; TIE2, 10 µM",84.5%
same,% Activity inhibition Run 1,"[1]; TIE2, 10 µM",92%
same,% Activity inhibition Run 2,"[1]; TIE2, 10 µM",77%
same,% Activity remaining Run 1,"[1]; TIE2, 10 µM",8%
same,% Activity remaining Run 2,"[1]; TIE2, 10 µM",23%
same,"% Activation, Mean value",[2]; PAK4,20%
same,"% Inhibition, Mean",[2]; PAK4,-20%
same,mean % activity,[2]; PAK4,120%
same,% Activity Run 1,"[2]; PAK4, 10 µM",110.0%
same,% Activity Run 2,"[2]; PAK4, 10 µM",130.0%
same,% activity,"[2]; PAK4, duplicate runs",110% and 130%
same,"% Inhibition, Mean",[3],32%
same,"% Inhibition, Run 1 / Run 2",[3],36% and 27%
same,mean % activity,[3],68%
same,% activity,[3]; duplicate runs,64% and 73%
same,"% Inhibition, Mean",[4],0.5%
same,mean % activity,[4],100%
same,% activity,[4]; duplicate runs,92% and 107%
same,"% Inhibition, Mean",[5]; WNK1,2.3%
same,mean % activity,[5]; WNK1,98%
same,% activity,"[5]; WNK1, duplicate runs",90% and 106%
same,"% Inhibition, Mean",[6],47%
same,"% Inhibition, Run 1 / Run 2",[6],56% and 39%
same,mean % activity,[6],53%
same,% activity,[6]; duplicate runs,45% and 61%
same,"% Inhibition, Mean",[7]; EPH-A4,27%
same,"% Inhibition, Run 1 / Run 2",[7]; EPH-A4,30% and 25%
same,mean % activity,[7]; EPH-A4,73%
same,% activity,"[7]; EPH-A4, duplicate runs",70% and 75%
same,"% Inhibition, Mean",[8]; YES1,8%
same,"% Inhibition, Run 1 / Run 2",[8]; YES1,7% and 8%
same,mean % activity,[8]; YES1,92%
same,% activity,"[8]; YES1, duplicate runs",93% and 92%
same,"% Inhibition, Mean",[9],17%
same,mean % activity,[9],83%
same,% activity,[9]; duplicate runs,73% and 93%
same,"% Inhibition, Mean",[10],24%
same,"% Inhibition, Run 1 / Run 2",[10],27% and 22%
same,mean % activity,[10],76%
same,% activity,[10]; duplicate runs,74% and 78%
same,"% Inhibition, Mean",[11]; MNK2,33%
same,"% Inhibition, Run 1 / Run 2",[11]; MNK2,44% and 22%
same,mean % activity,[11]; MNK2,67%
same,% activity,"[11]; MNK2, duplicate runs",57% and 78%
same,"% Inhibition, Mean",[12]; MAPKAP-K2,41%
same,"% Inhibition, Run 1 / Run 2",[12]; MAPKAP-K2,47% and 35%
same,mean % activity,[12]; MAPKAP-K2,60%
same,% activity,"[12]; MAPKAP-K2, duplicate runs",54% and 66%
